Results published in US20180289666A1, “FLAVONOLIGNANS FOR TREATMENT OF AUTOIMMUNE INFLAMMATORY DISEASES” (Macau University of Science and Technology, priority 2017, published 2018).

Experiments:
[1] = system: key enzymes involved in lipid metabolism in liver; experiment: Real-time PCR and Western blot of lipid metabolism enzymes in liver of AIA rats; format: in vivo, Sprague-Dawley (SD) rats
Protocol: Total RNA was isolated from the frozen liver of the AIA model using TRIzol® Reagent (Life technology, USA). mRNA was purified by binding to poly(dT) magnetic beads using Dynabeads® mRNA DIRECT™ Kit (Life technology, Norway) and reverse transcribed using SuperScript® III reverse transcriptase (Invitrogen, California, USA) as described by the manufacturer. Quantitative real-time PCR was performed using SYBR Green (Sigma-Aldrich, Louis, USA) on the ViiA™ 7 Real-Time PCR System (Applied Biosystems, FosterCity, USA). Quantitative RT-PCR analysis was performed using SYBR Green reagents and ViiA™ 7 Real-Time PCR System. Gene expression levels were calculated from cycle threshold (Ct) values and normalized with control gene GAPDH.
Liver tissue homogenates of AIA and MCD animal models were lysed in RIPA buffer (50 mM pH 7.4 Tris, 150 mM NaCl, 1% Triton X-100, 1% sodium deoxycholate, 0.1% SDS, sodium orthovanadate, sodium fluoride and EDTA) containing protease inhibitor cocktails (Roche Life Science, USA). Protein concentration was determined using the BCA protein assay kit (BIO-RAD, USA). Equal amounts of total protein were resolved using SDS-PAGE and transferred onto PVDF membranes (Millipore, Darmstadt, Germany). After incubation in a blocking solution containing with 5% (w/v) skim milk (Nestle Carnation, New Zealand) in TBST buffer (10 mM tris-buffered saline and 0.1% Tween20) for 1 h at room temperature and incubated with primary antibodies overnight at 4° C. The membranes were washed three times with 1×TBST solutions and incubated with the appropriate secondary antibodies at room temperature for 45 min, and subsequently visualized with an enhanced chemiluminescence detection kit (SuperSignal™ West Pico Chemiluminescent Substrate, Thermo Scientific, USA). β-actin was used as the loading control for the experimental data analysis.

[2] = system: MCD diet induced NASH mice; experiment: Plasma metabolomics by LC-MS/MS in MCD diet induced NASH mice; format: in vivo, C57Bl/6 mice; conditions: Silybin 300 mg/kg, * P < 0.05, ** P < 0.01
Protocol: The plasma sample (200 μL) was thawed on ice for 5 min prior to sample preparation and was mixed with 200 μL of 10 mM N-ethylmaleimide (NEM) in PBS buffer solution and 1000 μL of methanol containing internal standard (I.S.) Phe-d5 in 10 ng/ml. This mixture was incubated at −20° C. for 20 min, and then centrifuged at 12000 rpm for 10 min at 4° C. The supernatant was completely dried under nitrogen flow (Pressure Blowing Concentrator, Tokyo Rikakika, Tokyo, Japan) and reconstituted with distilled water.
LC-MS/MS analysis was performed on A Waters ACQUITY UPLC coupled with a 4000 Q-TRAP mass spectrometer. Chromatographic separation was carried on a Waters X Bridge™ BEH C18 analytical column (2.5 μm, 3.0×100 mm; Waters, Torrance, Calif.) with a mobile phase composed of 0.1% formic acid water (solvent A) and methanol (solvent B) which was running in a gradient program: 0-3.0 min (0%-1% B); 3.0-10.0 min (1-3% B); 10.0-14.0 min (3-50% B); 14.0-18.0 min (50-95% B); 18.0-22.0 min (95-0% B); followed by a 3-min re-equilibration step. The injection volume was 10 μl at 4° C. and flow rate was 0.6 ml/min. Electrospray (ESI) source were used in both positive and negative ion mode. The source parameters were set as follows: gas temperature: 450° C.; the ion spray voltage, ±4500 V; ion source gas 1 (nebulizer gas) 40 psi (N2); ion source gas 2 (auxiliary gas), 40 psi (N2); curtain gas: 20 psi. The MS/MS analysis was acquired in targeted MS/MS (MRM) mode with the collision energy ranging from 10 V to 40 V. All UPLC-MS data were obtained by AB Analyst Software (Version 1.6.2). Table 1 lists the 72 metabolites that are identified in the plasma samples from both AIA and MCD-diet induced NASH animal studies. The intensity of each ion was normalized with respect to peak area of I.S. for each chromatogram prior to multivariate statistical analysis.
The normalized data were exported and further processed by PCA and PLS-DA using a multivariate analysis package SIMCA-P software (Umea, Sweden). Model quality was evaluated based on the relevant values of R^2 and Q^2. Potential markers of interest were extracted from the values of variable importance in the projections (VIP>1), which were constructed from PLS-DA analysis. P values were obtained from Student's t-test (P<0.05). Hierarchical clustering analysis (HCA) was performed using bioinformatics software Multi Experiment Viewer (The Institute of Genomic Research, MA, USA) for visualization and organization of metabolite profiles.
Plasma samples of MCD-diet model were analyzed by LC-MS/MS for better understanding the functional metabolism in NASH model as well as the mechanism of Silybin treatment. […] OPLS-DA (R^2X=0.877, Q^2=0.749) was also used to identify and rank signature metabolites explaining most of the variance of metabolomes among the control, model and treatment group based on VIP scores and/or P value (FIG. 9). Unsupervised hierarchical clustering of this metabolite set classified NASH vs. control mice with 100% accuracy in both cohorts. A 15-metabolite signature with top-ranked VIP scores (VIP>1.0) separated control, model and Silybin treatment groups (p<0.05) was identified in Table 18 that distinguish each groups.

## COc1cc([C@H]2Oc3cc([C@H]4Oc5cc(O)cc(O)c5C(=O)[C@@H]4O)ccc3O[C@@H]2CO)ccc1O (stereo in doubt) [Silybin]
[1]; AIA rats liver
  expression of aP2 in the liver: reduced
  mRNA and/or protein expression of LPL, CYP7A1, and SREBP1 in liver: greatly repressed
  overexpression of SREBP1: not modulated
[1]; AIA rats liver, real-time PCR
  increased mRNA levels of hepatic lipogenesis genes (SREBP1, LXR, FXR): attenuated
[1]; AIA rats liver, real-time PCR and Western blot
  changes of key lipogenic enzyme in both gene and protein levels: ameliorated changes
[1]; AIA rats, real-time PCR, increase in the AIA model group
  mRNA level of LPL in liver: reversed
[2]
  Trend SB300 VS Model: Malondialdehyde (MDA): ↓**
[2]; plasma
  Trend SB300 VS Model: 4-(2-aminophenyl)-2,4-dioxobutanoic acid: ↓*
  Trend SB300 VS Model: 5-hydroxytryptamine: ↓**
  Trend SB300 VS Model: GSH: ↑*
  Trend SB300 VS Model: GSH/GSSG: ↑*
  Trend SB300 VS Model: GSSG: ↓*
  Trend SB300 VS Model: Glycochenodeoxycholic acid(GCDCA): ↓*
  Trend SB300 VS Model: L-Kynurenine: ↑**
  Trend SB300 VS Model: LPC(16:1): ↓*
  Trend SB300 VS Model: LPC(18:0): ↑*
  Trend SB300 VS Model: LPC(20:1): ↑*
  Trend SB300 VS Model: LPC(22:6): ↑*
  Trend SB300 VS Model: N-Phenylacetylglycine: ↓*
  Trend SB300 VS Model: Ophthalmic acid: ↓*
  Trend SB300 VS Model: Oxaloacetate: ↑*
  Trend SB300 VS Model: Proline: ↓*
  Trend SB300 VS Model: Trigonelline: ↑**
  Trend SB300 VS Model: Uric acid: ↓**
  Trend SB300 VS Model: Uridine: ↓**
  Trend SB300 VS Model: Ursodeoxycholic acid (UDCA): ↓*
